Results reported in ChEMBL document CHEMBL1140357, “Discovery of hydroxamic acid analogs as dual inhibitors of phosphodiesterase-1 and -5” (Bioorg Med Chem Lett, 2005).

How the values were obtained:
[1] = biological target: cGMP-specific 3',5'-cyclic phosphodiesterase (Homo sapiens, UniProt O76074); assay: Inhibitory concentration against Phosphodiesterase type 5
Phosphodiesterase 1 = Phosphodiesterase 1 (Homo sapiens, UniProt P54750+Q01064+Q14123); assay: Inhibitory concentration against Phosphodiesterase type 1; type: protein assay
Rattus norvegicus = species: Rattus norvegicus; assay: Effective concentration required for vasodilatory effect in isolated vessel of rat; type: functional
Phosphodiesterase 3 = Phosphodiesterase 3 (Homo sapiens, UniProt Q14432+Q13370); assay: Inhibitory concentration against Phosphodiesterase type 3; type: protein assay

Row | Compound | IC50 [1] [µM] | IC50 (Phosphodiesterase 1) [µM] | EC50 (Rattus norvegicus) [µM] | IC50 (Phosphodiesterase 3) [µM]
1 | CCCCC(C(=O)NO)c1csc(NC(=O)c2cccc(COc3ccccc3)n2)n1 (stereo not given) | 0.27 | 0.2 | – | –
2 | CCc1cc(C(C)=O)c(O)cc1OCc1cccc(C(=O)NC(CO)CCC(=O)OC)n1 (stereo not given) | 2.64 | – | – | –
3 | O=C(Cc1cccc(NC(=O)c2cccc(COc3ccccc3)n2)n1)NO | 0.04 | > 10 | – | –
4 | O=C(O)Cc1cccc(NC(=O)c2cccc(COc3ccccc3)n2)c1 | 10 | > 10 | – | –
5 | O=C(NO)c1cccc(NC(=O)c2cccc(COc3ccccc3)n2)n1 | 1.47 | > 10 | – | –
6 | O=C(Cc1csc(NC(=O)CCC(=O)c2ccccc2)n1)NO | 4.52 | > 10 | – | –
7 | CCC(C(=O)Nc1nc(CC(=O)NO)cs1)c1ccccc1 (stereo not given) | 6.19 | > 10 | – | –
8 | O=C(Cc1csc(NC(=O)c2ccc3ccccc3n2)n1)NO | 0.14 | 8 | – | –
9 | CC(C)C(C(=O)NO)c1csc(NC(=O)c2cccc(COc3ccccc3)n2)n1 (stereo not given) | 2.42 | 3.9 | – | –
10 | CCCCCCC(C(=O)O)c1csc(NC(=O)c2cccc(COc3ccccc3)n2)n1 (stereo not given) | 4.58 | > 10 | – | –
11 | CCc1cc(C(C)=O)c(O)cc1OCc1cccc(C(=O)NC(Cc2cnc[nH]2)C(=O)OC)n1 (stereo not given) | 9.07 | – | – | –
12 | O=C(Nc1nc(C2(C(=O)NO)CC2)cs1)c1cccc(COc2ccccc2)n1 | 0.89 | 0.63 | – | –
13 | COc1ccc2c(c1)C(CC(=O)Nc1nc(CC(=O)NO)cs1)CC2=O (stereo not given) | 3.16 | > 10 | – | –
14 | CCCCC(C(=O)O)c1csc(NC(=O)c2cccc(COc3ccccc3)n2)n1 (stereo not given) | 6.49 | > 10 | – | –
15 | O=C(Cc1csc(NC(=O)c2ccccn2)n1)NO | 3.2 | 7.1 | – | –
16 | O=C(Nc1nc(C(Cc2ccccc2)C(=O)O)cs1)c1cccc(COc2ccccc2)n1 (stereo not given) | 10 | > 10 | – | –
17 | O=C(Nc1nc(C(Cc2ccccc2)C(=O)NO)cs1)c1cccc(COc2ccccc2)n1 (stereo not given) | 0.83 | 1.36 | – | –
18 | Cc1nc(NC(=O)c2cccc(COc3ccccc3)n2)sc1C(=O)NO | 0.77 | > 10 | – | –
19 | CCc1cc(C(C)=O)c(O)cc1OCc1cccc(C(=O)N[C@@H](C)C(=O)O)n1 | 0.46 | – | – | –
20 | O=C(O)CCC(C(=O)O)c1csc(NC(=O)c2cccc(COc3ccccc3)n2)n1 (stereo not given) | 10 | > 10 | – | –
21 | CCc1cc(C(C)=O)c(O)cc1OCc1cccc(C(=O)NC(CO)CC(=O)OC)n1 (stereo not given) | 3.1 | – | – | –
22 | O=C(Nc1nc(C2(C(=O)O)CC2)cs1)c1cccc(COc2ccccc2)n1 | 8.58 | > 10 | – | –
23 | CCc1cc(C(C)=O)c(O)cc1OCc1cccc(C(=O)NC(CC(=O)O)c2ccccc2)n1 (stereo not given) | 1.45 | – | – | –
24 | CCOC(=O)CC(NC(=O)c1cccc(COc2cc(O)c(C(C)=O)cc2CC)c1)C(=O)OCC (stereo not given) | 0.65 | – | – | –
25 | CCc1cc(C(C)=O)c(O)cc1OCc1cccc(C(=O)NC(O)CC(=O)OC)n1 (stereo not given) | 6.07 | – | – | –
26 | O=C(NO)C(=O)c1csc(NC(=O)c2cccc(COc3ccccc3)n2)n1 | 2.2 | > 10 | – | –

Row | Compound | IC50 [1] [µM] | IC50 (Phosphodiesterase 1) [µM] | EC50 (Rattus norvegicus) [µM] | IC50 (Phosphodiesterase 3) [µM]
27 | CCc1cc(C(C)=O)c(O)cc1OCc1cccc(C(=O)Nc2nc(CC(=O)O)cs2)c1 | 0.63 | – | – | –
28 | CCc1cc(C(C)=O)c(O)cc1OCc1cccc(C(=O)N[C@H](C)C(=O)O)n1 | 1.03 | – | – | –
29 | O=C(Cc1csc(NC(=O)c2cccc(COc3ccccc3)n2)n1)NO | 0.19 | 0.92 | 3.9 | > 10
30 | Cc1sc(NC(=O)c2cccc(COc3ccccc3)n2)nc1CC(=O)NO | 0.04 | 4.52 | – | –
31 | CCc1cc(C(C)=O)c(O)cc1OCc1cccc(C(=O)NC(CO)(CO)CO)n1 | 8.91 | – | – | –
32 | CCCCCCCCCCCC(=O)Nc1nc(CC(=O)NO)cs1 | 1.8 | > 10 | – | –
33 | CCc1cc(C(C)=O)c(O)cc1OCc1cccc(C(=O)NCCC(=O)O)n1 | 0.27 | – | – | –
34 | COc1cc(OC)c(OC)c(C(=O)Nc2nc(CC(=O)NO)cs2)c1 | 2.58 | > 10 | – | –
35 | COc1ccc2c(c1)OC(=O)CC2CC(=O)Nc1nc(CC(=O)NO)cs1 (stereo not given) | 5.99 | > 10 | – | –
36 | CC(C)(C(=O)NO)c1csc(NC(=O)c2cccc(COc3ccccc3)n2)n1 | 0.52 | 0.67 | – | –
37 | O=C(Cc1csc(NC(=O)COc2ccccc2)n1)NO | 5.62 | > 10 | – | –
38 | COc1ccc2c(c1)c(CC(=O)Nc1nc(CC(=O)NO)cs1)c(C)n2C(=O)c1ccc(Cl)cc1 | 1.28 | 2.8 | – | –
39 | CCc1cc(C(C)=O)c(O)cc1OCc1cccc(C(=O)N(CC)CCCCCCCCC(N)=O)n1 | 1.21 | – | – | –
40 | CC(C)CC(C(=O)NO)c1csc(NC(=O)c2cccc(COc3ccccc3)n2)n1 (stereo not given) | 0.62 | 3.94 | – | –
41 | CCc1cc(C(C)=O)c(O)cc1OCc1cccc(C(=O)NC(C)C(=O)O)c1 (stereo not given) | 0.13 | – | – | –
42 | O=C(Nc1nc(C2(C(=O)NO)CCOCC2)cs1)c1cccc(COc2ccccc2)n1 | 2.49 | 2.93 | – | –
43 | CCc1cc(C(C)=O)c(O)cc1OCc1cccc(C(=O)NCC(=O)O)c1 | 0.92 | – | – | –
44 | O=C(Cc1csc(NC(=O)c2cccc3ccccc23)n1)NO | 1.1 | 1 | – | –
45 | CC(C)CC(C(=O)O)c1csc(NC(=O)c2cccc(COc3ccccc3)n2)n1 (stereo not given) | 6.25 | > 10 | – | –
46 | O=C(Cc1csc(NC(=O)CCCCCc2ccccc2)n1)NO | 1.9 | 4.5 | – | –
47 | O=C(Cc1csc(NC(=O)c2ccc(Cl)cc2Cl)n1)NO | 4.25 | > 10 | – | –
48 | O=C(Cc1csc(NC(=O)c2cccc(SC(F)(F)F)c2)n1)NO | 0.43 | 1.72 | – | –
49 | Cc1nc(NC(=O)c2cccc(COc3ccccc3)n2)sc1C(=O)O | 4.99 | 4.48 | – | –
50 | O=C(Nc1nc(C2(C(=O)O)CCOCC2)cs1)c1cccc(COc2ccccc2)n1 | 10 | > 10 | – | –
51 | CCC(=O)OCC(NC(=O)c1cccc(COc2cc(O)c(C(C)=O)cc2CC)n1)C(=O)O (stereo not given) | 6.68 | – | – | –
52 | CCc1cc(C(C)=O)c(O)cc1OCc1cccc(C(=O)NC(CO)C(=O)O)c1 (stereo not given) | 0.68 | – | – | –

More lines, in order of falling IC50 [1], values ahead:

Row | IC50 [1] [µM] | IC50 (Phosphodiesterase 1) [µM] | EC50 (Rattus norvegicus) [µM] | IC50 (Phosphodiesterase 3) [µM] | Compound
53 | 9.46 | – | – | – | CCc1cc(C(C)=O)c(O)cc1OCc1cccc(C(=O)NC(CO)CC(=O)O)n1 (stereo not given)
54 | 9.43 | > 10 | – | – | O=C(O)Cc1cccc(NC(=O)c2cccc(COc3ccccc3)n2)n1
55 | 9.28 | > 10 | – | – | O=C(O)CCC(CCC(=O)O)(C(=O)O)c1csc(NC(=O)c2cccc(COc3ccccc3)n2)n1
56 | 8.62 | – | – | – | CCc1cc(C(C)=O)c(O)cc1OCc1cccc(C(=O)NC(CO)C(=O)OCc2ccccc2)n1 (stereo not given)
57 | 8.43 | 3.87 | – | – | Cc1cccc(C(=O)Nc2nc(CC(=O)NO)cs2)c1Br
58 | 7.82 | – | – | – | CCc1cc(C(C)=O)c(O)cc1OCc1cccc(C(=O)NC2COC(=O)C2)n1 (stereo not given)
59 | 7.65 | – | – | – | CCc1cc(C(C)=O)c(O)cc1OCc1cccc(C(=O)NCCCCCC(=O)O)n1
60 | 7.56 | > 10 | – | – | O=C(Cc1csc(NC(=O)c2ccccc2F)n1)NO
61 | 5.47 | > 10 | – | – | CN(C)c1cccc(C(=O)Nc2nc(CC(=O)NO)cs2)c1
62 | 5.15 | – | – | – | CCc1cc(C(C)=O)c(O)cc1OCc1cccc(C(=O)Nc2nn[nH]n2)n1
63 | 3.81 | > 10 | – | – | O=C(Cc1csc(NC(=O)Nc2cccc3ccccc23)n1)NO
64 | 3.68 | – | – | – | CCc1cc(C(C)=O)c(O)cc1OCc1cccc(C(=O)NC(Cc2ccc(O)cc2)C(=O)O)n1 (stereo not given)
65 | 3.5 | > 10 | – | – | COc1ccc(NC(=O)c2cccc(COc3ccccc3)n2)cc1C(=O)NO
66 | 3.41 | 1.72 | – | – | O=C(Cc1csc(NC(=O)c2cccc(C(=O)c3ccccc3)c2)n1)NO
67 | 3.35 | – | – | – | CCc1cc(C(C)=O)c(O)cc1OCc1cccc(C(=O)NC(C(=O)OC)C(C)O)n1 (stereo not given)
68 | 3.3 | – | – | – | CCc1cc(C(C)=O)c(O)cc1OCc1cccc(C(=O)N(CCCCCCCCC(N)=O)C(C)CC)n1 (stereo not given)
69 | 3.28 | – | – | – | CCCCCCCC(=O)OCC(NC(=O)c1cccc(COc2cc(O)c(C(C)=O)cc2CC)n1)C(=O)O (stereo not given)

Row | IC50 [1] [µM] | IC50 (Phosphodiesterase 1) [µM] | EC50 (Rattus norvegicus) [µM] | IC50 (Phosphodiesterase 3) [µM] | Compound
70 | 3.25 | > 10 | – | – | O=C(Cc1csc(NC(=O)c2ccccc2)n1)NO
71 | 3.19 | – | – | – | CCc1cc(C(C)=O)c(O)cc1OCc1cccc(C(=O)NCC(O)c2ccc(O)cc2)n1 (stereo not given)
72 | 3.1 | – | – | – | CCc1cc(C(C)=O)c(O)cc1OCc1cccc(C(=O)Nc2ccc(OCC(=O)O)cc2)n1
73 | 2.66 | > 10 | – | – | Cc1c(NC(=O)c2cccc(COc3ccccc3)n2)cccc1C(=O)NO
74 | 2.13 | – | – | – | CCc1cc(C(C)=O)c(O)cc1OCc1cccc(C(=O)NC(C)C(=O)OC)c1 (stereo not given)
75 | 2.07 | > 10 | – | – | O=C(Cc1csc(NC(=O)Cc2cccc(C(F)(F)F)c2)n1)NO
76 | 1.84 | > 10 | – | – | O=C(Cc1csc(NC(=O)c2cnc3ccccc3n2)n1)NO
77 | 1.83 | > 10 | – | – | Cc1cc(C)cc(C(=O)Nc2nc(CC(=O)NO)cs2)c1
78 | 1.69 | 1.81 | – | – | O=C(Cc1csc(NC(=O)COc2ccc(Cl)cc2)n1)NO
79 | 1.24 | – | – | – | CCc1cc(C(C)=O)c(O)cc1OCc1cccc(C(=O)NC(C(=O)O)C(C)C)n1 (stereo not given)
80 | 0.87 | – | – | – | C=CCN(CCC(=O)O)C(=O)c1cccc(COc2cc(O)c(C(C)=O)cc2CC)n1
81 | 0.79 | 0.38 | – | – | O=C(Cc1csc(NC(=O)C2C=CN(c3ccccc3)c3ccccc32)n1)NO (stereo not given)
82 | 0.35 | – | – | – | CCc1cc(C(C)=O)c(O)cc1OCc1cccc(C(=O)NC(C)C(=O)NO)n1 (stereo not given)
83 | 0.32 | 2.67 | – | – | O=C(Cc1csc(NC(=O)c2cnccc2Oc2ccc(Cl)cc2)n1)NO
84 | 0.23 | 5.7 | – | – | CCCCCCC(C(=O)NO)c1csc(NC(=O)c2cccc(COc3ccccc3)n2)n1 (stereo not given)
85 | 0.026 | 0.087 | 0.9 | 1.3 | CCc1cc(C(C)=O)c(O)cc1OCc1cccc(C(=O)Nc2nc(CC(=O)NO)cs2)n1
86 | 0.013 | 2.41 | – | – | O=C(Cc1cccc(NC(=O)c2cccc(COc3ccccc3)n2)c1)NO
